In ChEMBL document CHEMBL4419176, “Compositions and methods for treating cancer” (2017):
The source made the active and inactive calls. The rule behind the calls is not given here.

Experiments:
VMM39 [1] = assay: Induction of apoptosis in human VMM39 cells at 10 to 20 uM in presence of apoptosis inhibitor ZVAD-FMK by Annexin V-PE and 7-AAD staining based flow cytometry; assay type: functional, cell-based
U-251 [2] = assay: Induction of autophagy in human U251 cells assessed as LC3-II accumulation at 10 to 20 uM by immunoblot analysis; assay type: functional, cell-based
U-251 [3] = assay: Induction of apoptosis in human U251 cells at 10 to 20 uM by Annexin V-PE and 7-AAD staining based flow cytometry; assay type: functional, cell-based
Homo sapiens [4] = assay: Antitumor activity against human G2 cells xenografted in orally dosed mouse assessed as increase in median mouse survival; assay type: functional, organism-based
U-251 [5] = assay: Cytotoxicity in human U251 cells assessed as reduction in cell viability at 10 uM in presence of phosphatidic acid incubated for 2 to 4 days by Trypan blue exclusion based hemocytometry; assay type: functional
Homo sapiens [6] = species: Homo sapiens; assay: Cytotoxicity in G528 cells (unknown origin) assessed as reduction in cell viability at 10 to 15 uM in presence of 10 uM chloroquine incubated for 2 to 4 days by Trypan blue exclusion based hemocytometry; assay type: functional
[7] = biological target: Diacylglycerol kinase alpha (Homo sapiens) (UniProt P23743); assay: Inhibition of DGKa in human U251 cells assessed as reduction in p53 phosphorylation at S15 residues at 12.5 to 17.5 uM incubated for 24 hrs by immunoblot analysis; assay type: cell-based
Chain of Diacylglycerol kinase alpha (Homo sapiens) (P23743 whole entry): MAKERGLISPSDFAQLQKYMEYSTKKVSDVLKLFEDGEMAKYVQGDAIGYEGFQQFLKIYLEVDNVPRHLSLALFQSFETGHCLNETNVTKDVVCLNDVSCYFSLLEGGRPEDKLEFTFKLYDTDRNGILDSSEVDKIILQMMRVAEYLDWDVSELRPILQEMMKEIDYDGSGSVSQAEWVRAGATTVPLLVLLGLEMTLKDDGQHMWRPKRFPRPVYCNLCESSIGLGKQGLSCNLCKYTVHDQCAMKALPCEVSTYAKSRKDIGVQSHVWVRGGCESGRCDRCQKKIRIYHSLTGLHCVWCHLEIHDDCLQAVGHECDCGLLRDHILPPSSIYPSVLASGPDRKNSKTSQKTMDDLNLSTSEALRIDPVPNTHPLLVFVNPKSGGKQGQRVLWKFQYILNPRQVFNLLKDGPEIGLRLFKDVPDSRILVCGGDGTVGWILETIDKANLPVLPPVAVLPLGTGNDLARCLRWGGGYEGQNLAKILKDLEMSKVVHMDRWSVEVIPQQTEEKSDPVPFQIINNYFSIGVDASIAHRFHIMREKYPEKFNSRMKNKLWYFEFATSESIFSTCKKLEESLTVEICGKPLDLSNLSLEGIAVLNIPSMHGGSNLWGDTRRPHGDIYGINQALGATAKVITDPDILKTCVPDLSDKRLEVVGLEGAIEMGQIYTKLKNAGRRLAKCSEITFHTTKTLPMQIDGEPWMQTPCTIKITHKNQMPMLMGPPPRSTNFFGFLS

Homo sapiens [8] = species: Homo sapiens; assay: Cytotoxicity in human GB816 cells with TNFalpha-induced proneural-to- mesenchymal transition at 8 uM; assay type: functional, cell-based
VMM39 [9] = assay: Antitumor activity against human VMM39 cells xenografted in athymic nu/nu mouse assessed as induction of delay in tumor formation at 50 mg/kg dosed via daily oral gavage; assay type: functional, organism-based
U-251 [10] = assay: Cytotoxicity in human U251 cells assessed as reduction in cell viability at 10 uM in presence of 20 uM chloroquine incubated for 2 to 4 days by Trypan blue exclusion based hemocytometry; assay type: functional
[11] = biological target: Diacylglycerol kinase alpha (Homo sapiens) (UniProt P23743); assay: Inhibition of DGKa in human G88 cells assessed as decrease in RhoA expression by ELISA; assay type: cell-based
U-251 [12] = assay: Synergistic cytotoxicity in human U251 cells assessed as reduction in cell viability at 7.5 uM in presence of 50 uM TMZ by alamar blue dye based assay; assay type: functional
A-375 [13] = assay: Antitumor activity against human A375 cells xenografted in athymic nu/nu mouse assessed as increase in mouse survival at 50 mg/kg dosed via daily oral gavage starting 6 days post-tumor implantation and measured up to 50 days post tumor implantation; assay type: functional, organism-based
[14] = biological target: Diacylglycerol kinase alpha (Homo sapiens) (UniProt P23743); assay: Inhibition of FLAG-tagged DGKa (unknown origin) using lipids and [gamma-32P]-ATP incubated for 15 mins by scintillation counting method
A-375 [15] = assay: Antitumor activity against human A375 cells xenografted in athymic nu/nu mouse assessed as reduction in tumor volume at 50 mg/kg dosed via daily oral gavage starting 6 days post-tumor implantation and measured up to 50 days post tumor implantation; assay type: functional, organism-based
Homo sapiens [16] = species: Homo sapiens; assay: Increase in PDGFRA expression in human G2 cells at 3 uM by immunoblot analysis; assay type: functional, cell-based
[17] = biological target: Diacylglycerol kinase alpha (Homo sapiens) (UniProt P23743); assay: Inhibition of DGKa in human VMM39 cells assessed as reduction in p53 phosphorylation at S15 residues at 12.5 to 17.5 uM incubated for 24 hrs by immunoblot analysis; assay type: cell-based
VMM39 [18] = assay: Synergistic cytotoxicity in human VMM39 cells assessed as reduction in cell viability at 7.5 uM in presence of 50 uM TMZ by alamar blue dye based assay; assay type: functional
VMM39 [19] = assay: Antitumor activity against human VMM39 cells xenografted in athymic nu/nu mouse assessed as induction of delay in tumor formation at 10 mg/kg dosed via daily oral gavage; assay type: functional, organism-based
[20] = biological target: Diacylglycerol kinase alpha (Homo sapiens) (UniProt P23743); assay: Inhibition of DGKa in human U251 cells transfected with HIF1a promoter assessed as decrease in HIF1a promoter activity at 20 uM incubated for 36 to 48 hrs by luciferase reporter gene assay; assay type: cell-based
U-251 [21] = assay: Antitumor activity against human U251 cells xenografted in athymic nu/nu mouse assessed as increase in mouse survival at 50 mg/kg dosed via daily oral gavage starting 7 days post-tumor implantation and measured up to 50 days post tumor implantation; assay type: functional, organism-based
VMM39 [22] = assay: Cytotoxicity in human VMM39 cells assessed as reduction in cell viability at 15 uM in presence of 10 uM chloroquine incubated for 2 to 4 days by Trypan blue exclusion based hemocytometry; assay type: functional
[23] = Synergistic cytotoxicity in human G2 cells assessed as combination index at 2 uM in presence of imatinib incubated for 5 days; assay type: functional
GL261 [24] = assay: Antitumor activity against mouse GL261 cells implanted in mouse syngeneic immunocompetent tumor model assessed as reduction in tumor volume at 100 mg/kg dosed via daily oral gavage starting 6 days post-tumor implantation and measured up to 100 days post tumor implantation; assay type: functional, organism-based
[25] = biological target: Diacylglycerol kinase alpha (Homo sapiens) (UniProt P23743); assay: Inhibition of DGKa in human U251 cells assessed as reduction in p53 phosphorylation at S15 residues at 15 uM incubated for 24 hrs by dot-blot proteomics assay relative to baseline; assay type: cell-based
[26] = biological target: Diacylglycerol kinase alpha (Homo sapiens) (UniProt P23743); assay: Inhibition of DGKa in human G2 cells assessed as decrease in NF-kappaB expression under 4 Gy irradiation by luciferase reporter gene assay; assay type: cell-based
[27] = Selectivity ratio of cytotoxicity against human mesenchymal GBM cells to cytotoxicity against human non-mesenchymal cells at 1 to 30 uM; assay type: functional
Homo sapiens [28] = species: Homo sapiens; assay: Cytotoxicity in human MPanc96 cells with TNFalpha-induced epithelial-mesenchymal transition at 15 uM; assay type: functional, cell-based
Astrocyte [29] = assay: Cytotoxicity against immortalized astrocytes (unknown origin) assessed as reduction in cell viability at 10 to 15 uM in presence of 10 uM chloroquine incubated for 2 to 4 days by Trypan blue exclusion based hemocytometry
A549 = assay: Cytotoxicity in human A549 cells with TNFalpha-induced epithelial-mesenchymal transition at 15 uM; assay type: functional, cell-based
[30] = biological target: Diacylglycerol kinase alpha (Homo sapiens) (UniProt P23743); assay: Inhibition of DGKa in human JWL578 cells transfected with mTOR promoter assessed as decrease in mTOR promoter activity at 20 uM incubated for 36 to 48 hrs by luciferase reporter gene assay; assay type: cell-based
[31] = biological target: Diacylglycerol kinase alpha (Homo sapiens) (UniProt P23743); assay: Inhibition of DGKa in human G88 cells assessed as decrease in GGTase-1 by measuring increase in unprenylated ras-related protein RaplA expression by immunoblot analysis; assay type: cell-based
[32] = biological target: Diacylglycerol kinase alpha (Homo sapiens) (UniProt P23743); assay: Inhibition of DGKa in human U251 cells transfected with mTOR promoter assessed as decrease in mTOR promoter activity at 20 uM incubated for 36 to 48 hrs by luciferase reporter gene assay; assay type: cell-based
Astrocyte [33] = assay: Cytotoxicity against immortalized astrocytes (unknown origin) assessed as reduction in cell viability at >20 uM incubated for 2 to 4 days by Trypan blue exclusion based hemocytometry
VMM39 [34] = assay: Cytotoxicity in human VMM39 cells assessed as reduction in cell viability at 2.5 to 22.5 uM by alamar blue dye based assay; assay type: functional
GL261 [35] = assay: Antitumor activity against mouse GL261 cells implanted in mouse syngeneic immunocompetent tumor model assessed as reduction in tumor size at 50 mg/kg dosed via daily oral gavage starting 6 days post-tumor implantation and measured up to 100 days post tumor implantation by magnetic resonance imaging analysis; assay type: functional, organism-based
Homo sapiens [36] = species: Homo sapiens; assay: Cytotoxicity in human JWL578 cells assessed as reduction in cell viability at 10 uM in presence of phosphatidic acid incubated for 2 to 4 days by Trypan blue exclusion based hemocytometry; assay type: functional
Homo sapiens [37] = species: Homo sapiens; assay: Increase in PDGFRA expression in human G88 cells at 3 uM by immunoblot analysis; assay type: functional, cell-based
U-251 [38] = assay: Induction of apoptosis in human U251 cells at 10 to 20 uM in presence of apoptosis inhibitor ZVAD-FMK by Annexin V-PE and 7-AAD staining based flow cytometry; assay type: functional, cell-based
[39] = biological target: Diacylglycerol kinase alpha (Homo sapiens) (UniProt P23743); assay: Inhibition of DGKa in human G2 cells assessed as decrease in RhoA expression by ELISA; assay type: cell-based
[40] = biological target: Diacylglycerol kinase alpha (Homo sapiens) (UniProt P23743); assay: Inhibition of DGKa in human U251 cells assessed as HSP60 protein level at 15 uM incubated for 24 hrs by dot-blot proteomics assay relative to baseline; assay type: cell-based; set-up: scale not given: the % may be the effect or the level left
Homo sapiens [41] = species: Homo sapiens; assay: Cytotoxicity in human GB464 cells with TNFalpha-induced proneural-to- mesenchymal transition at 8 uM; assay type: functional, cell-based
[42] = biological target: Diacylglycerol kinase alpha (Homo sapiens) (UniProt P23743); assay: Inhibition of DGKa in human G88 cells assessed as decrease in NF-kappaB expression under 4 Gy irradiation by luciferase reporter gene assay; assay type: cell-based
[43] = biological target: Diacylglycerol kinase alpha (Homo sapiens) (UniProt P23743); assay: Inhibition of DGKa in human G2 cells assessed as decrease in GGTase-1 by measuring increase in unprenylated ras-related protein RaplA expression by immunoblot analysis; assay type: cell-based
Homo sapiens [44] = species: Homo sapiens; assay: Cytotoxicity in G34 cells (unknown origin) assessed as reduction in cell viability at 10 uM in presence of 5 uM chloroquine incubated for 2 to 4 days by Trypan blue exclusion based hemocytometry; assay type: functional
[45] = biological target: Diacylglycerol kinase alpha (Homo sapiens) (UniProt P23743); assay: Inhibition of DGKa in human U251 cells assessed as reduction in P70 S6K phosphorylation at T389/T421 residues at 15 uM incubated for 24 hrs by dot-blot proteomics assay relative to baseline; assay type: cell-based
U-251 [46] = assay: Cytotoxicity in human U251 cells assessed as reduction in cell viability at 2.5 to 17.5 uM by alamar blue dye based assay; assay type: functional
U-251 [47] = assay: Induction of autophagy in human U251 cells assessed as LC3-II accumulation at 10 uM in presence of 20 uM chloroquine by immunoblot analysis; assay type: functional, cell-based
[48] = Synergistic cytotoxicity in human G88 cells assessed as combination index at 2 uM in presence of imatinib incubated for 5 days; assay type: functional
B16 = assay: Cytotoxicity in mouse B16 cells assessed as reduction in cell viability at 10 uM in presence of 5 uM chloroquine incubated for 2 to 4 days by Trypan blue exclusion based hemocytometry; assay type: functional
VMM39 [49] = assay: Induction of apoptosis in human VMM39 cells at 10 to 20 uM by Annexin V-PE and 7-AAD staining based flow cytometry; assay type: functional, cell-based
GL261 [50] = assay: Cytotoxicity in mouse GL261 cells assessed as reduction in cell viability at 10 uM in presence of 10 uM chloroquine incubated for 2 to 4 days by Trypan blue exclusion based hemocytometry; assay type: functional
[51] = Cytotoxicity in human JWL578 cells assessed as reduction in cell viability incubated for 2 to 4 days by Trypan blue exclusion based hemocytometry; assay type: functional
VMM39 [52] = assay: Cytotoxicity in human VMM39 cells assessed as reduction in cell viability at 25 to 150 uM by alamar blue dye based assay; assay type: functional
U-251 [53] = assay: Cytotoxicity in human U251 cells assessed as reduction in cell viability at 25 to 75 uM by alamar blue dye based assay; assay type: functional

For `Cc1nc2sccn2c(=O)c1CCN1CCC(=C(c2ccc(F)cc2)c2ccc(F)cc2)CC1` [RITANSERIN], the Activity (VMM39 [1]) was “Active”, the Activity (U-251 [2]) was “Active” and the Activity (U-251 [3]) was “Active”. For the same molecule, the Activity (Homo sapiens [4]) was “Active”, the Activity (U-251 [5]) was “inactive” and the Activity (Homo sapiens [6]) was “Active”. For the same molecule, the inhibition [7] was “Active”, the Activity (Homo sapiens [8]) was “Active” and the Activity (VMM39 [9]) was “Active”. The Activity (U-251 [10]) was “Active”, the inhibition [11] was “Active” and the Activity (U-251 [12]) was “<=90%”. The Activity (A-375 [13]) was “Active”, the inhibition [14] was “Dose-dependent effect” and the Activity (A-375 [15]) was “Active”. The Activity (Homo sapiens [16]) was “Active”, the inhibition [17] was “Active” and the Activity (VMM39 [18]) was “<=90%”. The Activity (VMM39 [19]) was “inactive”, the inhibition [20] was “Active” and the Activity (U-251 [21]) was “Active”. For the same molecule, the Activity (VMM39 [22]) was “Active”, the CI [23] was 0.24 and the Activity (GL261 [24]) was “Active”. For the same molecule, the inhibition [25] was “Active”, the inhibition [26] was “Active” and the Ratio [27] was 3 - 4. For the same molecule, the Activity (Homo sapiens [28]) was “Active”, the Activity (Astrocyte [29]) was “Non-Toxic” and the Activity (A549) was “Active”. The inhibition [30] was “Active”, the inhibition [31] was “Active” and the inhibition [32] was “Active”. For the same molecule, the Activity (Astrocyte [33]) was “Non-Toxic”, the Activity (VMM39 [34]) was “inactive” and the Activity (GL261 [35]) was “Active”. The Activity (Homo sapiens [36]) was “inactive”, the Activity (Homo sapiens [37]) was “Active” and the Activity (U-251 [38]) was “Active”. The inhibition [39] was “Active”, the Activity [40] was 10% and the Activity (Homo sapiens [41]) was “Active”. The inhibition [42] was “Active”, the inhibition [43] was “Active” and the Activity (Homo sapiens [44]) was “Active”. For the same molecule, the inhibition [45] was “Active”, the Activity (U-251 [46]) was “inactive” and the Activity (U-251 [47]) was “Active”. The CI [48] was 0.25, the Activity (B16) was “Active” and the Activity (VMM39 [49]) was “Active”. For the same molecule, the Activity (GL261 [50]) was “Active” and the IC50 [51] was 5 to 10 µM.

For `Cc1nc2sccn2c(=O)c1CCN1CCC(=C(c2ccccc2)c2ccc(F)cc2)CC1`, the inhibition [14] was “Dose-dependent effect”.

In the case of `Cn1nnc2c(C(N)=O)ncn2c1=O`, the Activity (VMM39 [52]) is reported as “inactive” and the Activity (U-251 [53]) is reported as “inactive”.
